Legend:
cell-cell aggregation = assay: Inhibition of cell-cell aggregation (method of Fritz et al.); type: cell-based
Excerpt: Cell-cell aggregation studies by the method of Fritz et al., J. CeII.

CPT-II [1] = target: T1, CPT-II (Bos taurus, UniProt Q2KJB7); assay: CPT inhibition (spectrophotometric assay, CPT-II prepared from beef liver); type: biochemical; conditions: CPT-II from beef liver, 10 μM decanoyl-CoA, L-carnitine 1 mM and 5 mM, pH 7.4, 30° C.
T1 construct: CPT-II was prepared from beef liver; from tissue; host or cells: beef liver
T1 sequence (Q2KJB7 26-658): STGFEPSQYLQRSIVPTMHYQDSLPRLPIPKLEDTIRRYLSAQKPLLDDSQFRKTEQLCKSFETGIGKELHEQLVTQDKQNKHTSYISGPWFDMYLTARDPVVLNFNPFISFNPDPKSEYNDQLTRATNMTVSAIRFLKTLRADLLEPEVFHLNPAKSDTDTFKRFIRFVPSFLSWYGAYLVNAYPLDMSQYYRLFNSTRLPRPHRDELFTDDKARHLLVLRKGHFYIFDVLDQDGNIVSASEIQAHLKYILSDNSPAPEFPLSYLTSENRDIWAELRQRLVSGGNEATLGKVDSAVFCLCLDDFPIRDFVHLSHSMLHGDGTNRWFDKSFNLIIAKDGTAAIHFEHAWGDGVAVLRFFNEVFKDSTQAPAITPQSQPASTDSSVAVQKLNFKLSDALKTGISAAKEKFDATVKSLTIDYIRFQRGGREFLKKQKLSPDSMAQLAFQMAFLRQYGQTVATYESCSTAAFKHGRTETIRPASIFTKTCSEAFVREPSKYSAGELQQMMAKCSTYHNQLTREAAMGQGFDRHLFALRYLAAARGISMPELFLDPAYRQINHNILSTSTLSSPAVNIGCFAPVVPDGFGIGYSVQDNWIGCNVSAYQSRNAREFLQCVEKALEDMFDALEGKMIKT
Method: (§1) Preparation: CPT-II was prepared from beef liver using the methods of P. R. H. Clarke and L. L. Bieber (1981) J. Biol. Chem., 256. 9861-9868.
(§2) In final volume of 1 ml, 20 mm KPO4^-, pH 7.4 at 30° C., 125 μM aldrithiol [4,4-dithio(bis)pyridine], 10 μM decanoyl-CoA, 10 μl enzyme (1.25 μg/ml) and inhibitor were preincubated at 30° C. for 1 min. and the reaction was initiated with L-carnitine. The absorbance change at 324 nm, followed in a spectrophotometer, was linear with time. L-carnitine conc. were 1 mM and 5 mM. H15C conc. ranged from 1.25 μM-12.5 μM (6values).

CPT-II [2] = assay: as above; type: biochemical; conditions: Ki 2 μM versus 10.4 μM
Method: as §1, §2

In the case of `CCCCCCCCCCCCCCCC(=O)C[N+](C)(C)CCCO` [Example 9, N-(3-Hydroxypropyl)-N,N-dimethyl-N-(2-oxoheptadecyl)ammonium Bromide], the Ki (cell-cell aggregation) is reported as 0.75 µM.
`CCCCCCCCCCCCCCCCC1(O)C[N+](C)(C)CCO1` (racemic) [Example 3, 2-Hexadecyl-2-hydroxy-4,4-dimethylmorpholinium Bromide] was tested, and the Ki (cell-cell aggregation) was 0.4 µM.
`CCCCCCCCCCCCC1(O)C[N+](C)(C)CCO1` (racemic) [Example 7, 2-Dodecyl-2-hydroxy-4,4-dimethylmorpholinium Bromide] was tested, and the Ki (cell-cell aggregation) was 12 µM.
`CCCCCCCCCCCCCCC1(O)C[N+](C)(C)CCO1` (racemic) [Example 5, 2-Hydroxy-4,4-dimethyl-2,-tetradecylmorpholinium Bromide] was tested, and the Ki (cell-cell aggregation) was 1.5 µM.
With `CCCCCCCCCCCCCCCC1(O)C[N+](C)(C)CCO1.[Br-]` (stereo not shown) [Example 4, 2Hydroxy-4,4-dimethyl-2-pentadecylmorpholinium Bromide] the Ki (CPT-II [1]) was 2 µM, the “binding strength relative to palmitoylcholine (from Ki against CPT)” value (CPT-II [2]) was “five-fold stronger binding” and the Ki (cell-cell aggregation) was 0.4 µM.
